Data reported in US20250381169A1, “METHODS FOR TREATING RENAL DISEASE” (Arizona Board of Regents on Behalf of the University of …, priority 2022, published 2025).
Entries after “also recorded” stand apart in the source; their conditions may differ.

Experiments:
[1] = tested on: kidney cortex of naïve mice; assay: Mitochondrial biogenesis in kidney cortex of naïve mice; format: in vivo
Procedure: Mice were treated with vehicle, 0.3 mg/kg or 1 mg/kg of MC16 with 2 doses IP (Oh, 24h) and harvested at 48 h.
Proteins were measured using immunoblot analysis or PCR to measure mRNA. […] FIG. 2G is a table of antioxidant and electron transport chain proteins and associated mRNAs.

[2] = tested on: aged mouse kidneys (renal cortex); assay: Global metabolomics of renal cortex in aged mice; format: in vivo
Procedure: Aged 22-month-old male C57B/6J mice were administered 1.0 mg/kg of MC16 or normal saline every other day over a 21-day interval (n=8-9/group). Seven-month-old C57B/6J male mice (controls) were administered normal saline every other day over a 21-day interval (n=7). Kidneys were harvested and snap frozen in liquid nitrogen. Renal cortex biopsies were analyzed by Metabolon for global metabolomic analyses. Briefly, samples were processed and divided into four fractions: two for analysis by RP/UPLC-MS/MS with (+) ion mode electrospray ionization (IMESI), one for RP/UPLC-MS/MS with (−) IMESI, and one for HILIC/UPLC-MS/MS with (−) IMESI. […] A p-value of p≤0.05 and a false discovery rate of q<0.10 were utilized to identify global metabolite alteration and correct for multiple comparisons, respectively.

Db/db mice = assay: db/db mouse model of diabetic kidney disease; format: in vivo
Procedure: Db/db and nondiabetic (db/m) mice (10 wk old) were treated with MC16 or vehicle for 3 wk and euthanized.

[3] = tested on: renal proximal tubule cells (RPTCs); assay: Renal proximal tubule cells treated with high glucose; format: cell-based
Procedure: Here, the effects of MC16 on mitochondrial dysfunction and dynamics in renal proximal tubule cells (RPTCs) treated with high glucose and in a mouse model of type 2 diabetes was assessed.

[4] = tested on: mice subjected to renal I/R; assay: Mouse AKI model (renal ischemia reperfusion, I/R); format: in vivo
Procedure: Control and treated mice subjected to renal I/R were treated with MC16 (0.3 mg/kg) or vehicle 24 h after injury and then daily for 120 h (euthanized at 144 h). Using electron microscopy, mitochondria were counted. Vascular permeability was assessed with Evan's blue dye leakage and proteins were measured in renal cortices using immunoblot. Serum creatinine was also measured.

[5] = MC16-treated 'old' mice compared to saline-treated 'old' mice
[6] = MC16-treated 'old' mice vs saline-treated 'young' control mice
[7] = FIG. 16, compared to diabetic mice getting vehicle
[8] = db/db mice 10 wk old, treated for 3 wk
[9] = RPTCs exposed to 17 mM glucose, 96 h
[10] = I/R+MC16 group, decreased in I/R group

CCN1C(=O)C(Cc2cccc(OC)c2O)(OC(=O)N(C)C)c2cc(Cl)ccc21 (stereo not shown) [MC16, 5-chloro-1-ethyl-3-(2-hydroxy-3-methoxybenzyl)-2-oxoindolin-3-yl dimethylcarbamate]
mitochondrial and antioxidant proteins ([1]; immunoblot or PCR, n=6): increases | mitochondrial biogenesis pathway proteins and/or associated mRNA ([1]; immunoblot or PCR, n=6): induces | Mitochondrial number in kidney cortex ([1]; naïve mice, 0.3 mg/kg or 1 mg/kg, 2 doses IP (0 h, 24 h), harvested at 48 h): increases | reduction in DHAP [2, 5]: 20% | reduction in fructose-6-phosphate [2, 5]: 24% | reduction in glucose-6-phosphate [2, 5]: 32% | long chain polyunsaturated fatty acids (n3 and n6) ([2]; MC16-treated 'old' mice vs saline-treated 'old' and 'young' mice controls): increase | glycolysis metabolites [2, 6]: no statistical changes | metabolic lipid alterations (diacylglycerols, monoacylglycerols, acyl glycines, PC, PE, plasmalogens, secondary bile acids) [2, 6]: not observed | origin of carnitine species ([2]; MC16-treated 'old' mice, saline-treated 'old' mice: leucine, isoleucine, valine metabolism): fatty acid metabolism | carnitine levels ([2]; both 'old' groups (saline and MC16)): elevated | PGC1α (Db/db mice; FIG. 9, n=6): restores | MFN2 (fusion) (Db/db mice; FIG. 10, n=6): increased | mitochondrial fission proteins (Db/db mice; FIG. 11, n=6): no effect | mitophagy proteins (Db/db mice; FIG. 12, n=6): increases | glomerular function over time (Db/db mice; FIG. 13, mice have yet to show signs of DKD in the timeframe): does not change | vascular tight junction proteins (Db/db mice; FIG. 15, n=6): improves | blood glucose (Db/db mice; [7]): does not increase/decrease | urine output (Db/db mice; [7]): does not increase/decrease | kidney weight (Db/db mice; FIG. 17, relative to control mice): normalized | KIM1 (Db/db mice; FIG. 18): normalizes | NGAL (Db/db mice; FIG. 18): No effects | serum creatinine (Db/db mice; FIG. 18): normalizes | ATP (Db/db mice; [8]): prevented; also recorded: restores | phospho-Drp1 (Db/db mice; [8]): restored | renal cortical ETC protein levels (complexes I, III, and V) (Db/db mice; [8]): prevented; also recorded: restores | ATP [3, 9]: restored | ETC proteins [3, 9]: restored | oxygen consumption rate [3, 9]: restored | Mfn1 ([3]; RPTCs exposed to high glucose): restored | phospho-Drp1 ([3]; RPTCs exposed to high glucose): restored | recovery of renal function (serum creatinine) ([4]; FIG. 3, n=6): promotes recovery | recovery of tubular injury (Kim1 expression) ([4]; FIG. 3, n=6): promotes recovery | MFN2 ([4]; FIG. 5, during injury or MC16 treatment): did not change | MFN1 (fusion) ([4]; FIG. 5, n=6): increases | pDRP1 (fission) ([4]; FIG. 6, at 144 h): decreases | DRP1 ([4]; FIG. 6, n=6): does not have an affect | PGC-1α in the cytosolic fraction ([4]; FIG. 7, cytosolic fraction): not in the cytosolic fraction | nuclear PGC-1α (biogenesis) ([4]; FIG. 7, nuclear fraction): increases | serum creatinine decrease ([4]; I/R+MC16, 0.3 mg/kg from 24 h after injury, daily, at 144 h (I/R group alone 41%)): 72% | Kim1 decrease ([4]; I/R+MC16 group, 0.3 mg/kg, 144 h): 50% | PGC-1α ([4]; I/R+MC16 group, renal cortex immunoblot): increased | Tight junction protein Claudin5 [4, 10]: recovered | Tight junction protein ZO-1 [4, 10]: recovered | Evan's blue dye leakage (vascular permeability) ([4]; I/R+MC16 group, increased 2.5-fold in I/R group): restored | mitochondria biogenesis in renal cortices ([4]; mitochondria counted by electron microscopy, 0.3 mg/kg): 1.4 fold
